Read-outs that look alike come from different tables or passages of the source.
Experiments:
[1] = molecular target: T1, complement C5a receptor 1 (C5aR1) (Homo sapiens, UniProt P21730); experiment: β-arrestin recruitment via C5aR1 activation in live CHO-K1 cells (PathHunter), antagonist mode; format: cell-based; details: antagonist mode; recombinant hC5a (EC90) as competing natural agonist; live CHO-K1 cells; read-out: [Antagonist] B-arrestin2 recruitment: Average IC50
T1 construct: β-galactosidase fragment (PathHunter enzyme complementation); host or cells: CHO-K1 (PathHunter CHO-K1 C5aR1 β-arrestin cell line)
T1 sequence (P21730 1-350): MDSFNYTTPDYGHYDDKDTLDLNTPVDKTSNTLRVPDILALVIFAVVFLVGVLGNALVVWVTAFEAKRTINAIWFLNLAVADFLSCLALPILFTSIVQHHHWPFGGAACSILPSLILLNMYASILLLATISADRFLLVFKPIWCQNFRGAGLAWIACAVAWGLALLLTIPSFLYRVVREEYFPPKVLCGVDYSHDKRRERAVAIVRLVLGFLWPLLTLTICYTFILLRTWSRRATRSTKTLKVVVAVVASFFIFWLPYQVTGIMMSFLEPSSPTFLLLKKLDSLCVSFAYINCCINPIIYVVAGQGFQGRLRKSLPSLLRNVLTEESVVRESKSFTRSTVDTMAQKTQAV
Method in brief: (§1)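 β-arrestin recruitment to C5aR1 in CHO-K1 cells is detected by enzyme-fragment complementation. Antagonism is measured against recombinant hC5a at its EC90; agonism is measured with compound alone. Potencies are grouped into IC50 categories.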

[2] = molecular target: T1, complement C5a receptor 1 (C5aR1); experiment: β-arrestin recruitment via C5aR1 activation in live CHO-K1 cells (PathHunter), agonist mode; format: cell-based
Method in brief: as §1

Row | Compound | IC50 [1] | [Agonist] B-arrestin2 recruitment: Average EC50 (nM) ([2]; at 10 μM) | [Agonist] B-arrestin2 recruitment: Average EC50 (nM) [2]
1 | Cc1ccc2cc([C@H]3CC[C@H](c4c(C)ccnc4F)CC3)c(=O)n(Cc3ncccc3C(C)(F)F)c2n1 [compound 258, 1-((3-(1,1-difluoroethyl)pyridin-2-yl)methyl)-3-((1r,4r)-4-(2-fluoro-4-methylpyridin-3-yl)cyclohexyl)-7-methyl-1,8-naphthyridin-2(1H)-one] | < 500 nM |  | Non-Active
2 | Cc1ccc2cc([C@H]3CC[C@H](c4c(C)ccnc4F)CC3)c(=O)n(Cc3ncccc3CC(F)(F)F)c2n1 [compound 259, 7-Methyl-3-[(1r,4r)-4-(2-fluoro-4-methyl-3-pyridyl)cyclohexyl]-1-{[3-(2,2,2-trifluoroethyl)-2-pyridyl]methyl}-1,8-diaza-2(1H)-naphthalenone] | < 500 nM |  | Non-Active
3 | COc1nccc(C)c1[C@H]1CC[C@H](c2cc3ccc(C)nc3n(Cc3ncccc3CC(F)(F)F)c2=O)CC1 [compound 260, 7-Methyl-3-[(1r,4r)-4-(2-methoxy-4-methyl-3-pyridyl)cyclohexyl]-1-{[3-(2,2,2-trifluoroethyl)-2-pyridyl]methyl}-1,8-diaza-2(1H)-naphthalenone] | < 500 nM |  | Non-Active
4 | COc1nccc(C)c1[C@H]1CC[C@H](c2cc3ccc(C)nc3n(Cc3ncccc3OC(F)(F)F)c2=O)CC1 [compound 261, 7-Methyl-3-[(1r,4r)-4-(2-methoxy-4-methyl-3-pyridyl)cyclohexyl]-1-[(3-trifluoromethoxy-2-pyridyl)methyl]-1,8-diaza-2(1H)-naphthalenone] | < 500 nM |  | Non-Active
5 | Cc1ccc2cc([C@H]3CC[C@H](c4c(C)ccnc4F)CC3)c(=O)n(Cc3ncccc3C(F)(F)F)c2n1 [compound 262, 7-Methyl-3-[(1r,4r)-4-(2-fluoro-4-methyl-3-pyridyl)cyclohexyl]-1-{[3-(trifluoromethyl)-2-pyridyl]methyl}-1,8-diaza-2(1H)-naphthalenone] | < 500 nM |  | Non-Active
6 | Cc1ccc2cc([C@H]3CC[C@H](c4c(C)cccc4F)CC3)c(=O)n(Cc3nccnc3OCC(F)F)c2n1 [compound 263, 1-{[3-(2,2-Difluoroethoxy)-2-pyrazinyl]methyl}-7-methyl-3-[(1r,4r)-4-(2-fluoro-6-tolyl)cyclohexyl]-1,8-diaza-2(1H)-naphthalenone] | < 500 nM |  | Non-Active
7 | Cc1ccc2cc([C@H]3CC[C@H](c4c(C)cccc4F)CC3)c(=O)n(Cc3nccnc3OCC(F)(F)F)c2n1 [compound 264, 7-Methyl-3-[(1r,4r)-4-(2-fluoro-6-tolyl)cyclohexyl]-1-{[3-(2,2,2-trifluoroethoxy)-2-pyrazinyl]methyl}-1,8-diaza-2(1H)-naphthalenone] | < 500 nM |  | Non-Active
8 | Cc1cnc2cc(C3CCCCC3)c(=O)n(Cc3ncccc3C(F)(F)F)c2n1 [compound 265, 7-Cyclohexyl-3-methyl-5-{[3-(trifluoromethyl)-2-pyridyl]methyl}-1,4,5-triaza-6(5H)-naphthalenone] | 500 to 5000 nM |  | Non-Active
9 | Cc1cnc2cc([C@H]3CC[C@H](c4c(F)cnc5c4cnn5C)CC3)c(=O)n(Cc3ncccc3C(F)(F)F)c2n1 [compound 266, 3-Methyl-7-[(1r,4r)-4-(5-fluoro-1-methyl-1H-1,2,7-triazainden-4-yl)cyclohexyl]-5-{[3-(trifluoromethyl)-2-pyridyl]methyl}-1,4,5-triaza-6(5H)-naphthalenone] | 5000 to 100000 nM |  | Non-Active
10 | Cc1cccc(F)c1[C@H]1CC[C@H](c2cc3ncc(C(C)(F)F)nc3n(Cc3ncccc3C(F)(F)F)c2=O)CC1 [compound 267, 3-(1,1-Difluoroethyl)-7-[(1r,4r)-4-(2-fluoro-6-tolyl)cyclohexyl]-5-{[3-(trifluoromethyl)-2-pyridyl]methyl}-1,4,5-triaza-6(5H)-naphthalenone] | < 500 nM |  | Non-Active
11 | Cc1ccc2cc([C@H]3CC[C@H](c4c(C)cccc4F)CC3)c(=O)n(Cc3ncccc3CC(F)F)c2n1 [compound 268, 1-{[3-(2,2-Difluoroethyl)-2-pyridyl]methyl}-7-methyl-3-[(1r,4r)-4-(2-fluoro-6-tolyl)cyclohexyl]-1,8-diaza-2(1H)-naphthalenone] | < 500 nM |  | Non-Active

Now from value to molecule:

Row | IC50 [1] | [Agonist] B-arrestin2 recruitment: Average EC50 (nM) ([2]; at 10 μM) | [Agonist] B-arrestin2 recruitment: Average EC50 (nM) [2] | Compound
12 | < 500 nM | Non-Active at 10 μM |  | COc1nccc(C)c1[C@H]1CC[C@H](c2cc3ccc(C)nc3n(Cc3ncccc3C3CC3)c2=O)CC1 [compound 252, 1-((3-Cyclopropylpyridin-2-yl)methyl)-3-((1r,4r)-4-(2-methoxy-4-methylpyridin-3-yl)cyclohexyl)-7-methyl-1,8-naphthyridin-2(1H)-one]
13 | < 500 nM |  | Non-Active | Cc1cnc2cc([C@H]3CC[C@H](c4cnsc4C)CC3)c(=O)n(Cc3ncccc3OC(F)(F)F)c2n1 [compound 253, 3-Methyl-7-[(1r,4r)-4-(5-methyl-4-isothiazolyl)cyclohexyl]-5-[(3-trifluoromethoxy-2-pyridyl)methyl]-1,4,5-triaza-6(5H)-naphthalenone]
14 | < 500 nM |  | Non-Active | Cc1ccc2cc([C@H]3CC[C@H](c4cnccc4C(F)(F)F)CC3)c(=O)n(Cc3ncccc3C(C)(F)F)c2n1 [compound 254, 1-{[3-(1,1-Difluoroethyl)-2-pyridyl]methyl}-7-methyl-3-{(1r,4r)-4-[4-(trifluoromethyl)-3-pyridyl]cyclohexyl}-1,8-diaza-2(1H)-naphthalenone]
15 | < 500 nM |  | Non-Active | Cc1ccc2cc([C@H]3CC[C@H](c4c(C)ccnc4F)CC3)c(=O)n(Cc3ncccc3OC(F)(F)F)c2n1 [compound 255, 7-Methyl-3-[(1r,4r)-4-(2-fluoro-4-methyl-3-pyridyl)cyclohexyl]-1-[(3-trifluoromethoxy-2-pyridyl)methyl]-1,8-diaza-2(1H)-naphthalenone]
16 | < 500 nM |  | Non-Active | COc1nccc(C)c1[C@H]1CC[C@H](c2cc3ccc(C)nc3n(Cc3ncccc3C(C)(F)F)c2=O)CC1 [compound 256, 1-{[3-(1,1-Difluoroethyl)-2-pyridyl]methyl}-7-methyl-3-[(1r,4r)-4-(2-methoxy-4-methyl-3-pyridyl)cyclohexyl]-1,8-diaza-2(1H)-naphthalenone]
17 | < 500 nM |  | Non-Active | Cc1ccc2cc([C@H]3CC[C@H](c4c(C)cccc4F)CC3)c(=O)n(Cc3nccnc3C3CC3)c2n1 [compound 257, 1-[(3-Cyclopropyl-2-pyrazinyl)methyl]-7-methyl-3-[(1r,4r)-4-(2-fluoro-6-tolyl)cyclohexyl]-1,8-diaza-2(1H)-naphthalenone]

Reference: patent US20260317320A1, “C5AR1 ANTAGONISTS AND USES THEREOF” (Vanqua Bio, Inc., priority 2022, published 2026)
